The text below walks through data of patent publication US8993544B2, “Carbamoylphosphonates as inhibitors and uses thereof” (priority 2009, dated 2015).

One experiment relates to B16F10 tumor cells. The experiment is described as follows: Murine melanoma model of experimental metastasis. It counts as in vivo, C57B1 mice. Conditions: B16F10 tumor cells in C57B1 mice.
A further experiment deals with tumor invasion. In words: In vitro model of tumor invasion (Boyden chamber, reconstituted basement membrane). It counts as cell-based. Conditions: read-out: % Invasion-Inhibition by 50 μM drug. How it is done:
The compound was also evaluated in an in vivo experimental model of metastasis using B16F10 tumor cells in C57B1 mice. […] The assay was carried out in a Boyden chamber with a reconstituted basement membrane (Matrigal).

The target of a further experiment is T1, human MMP-8 (Homo sapiens, UniProt P22894).
T1 construct: purchased R&D Systems, Minneapolis
The experiment is described as follows: Determination of MMP inhibitory potency, MMP-8. It counts as biochemical. How it is done:
(§1) Recombinant enzymes, human MMP-1, MMP-2, MMP-3, MMP-8, MMP-9, MMP-12, MMP-13 and TACE (R&D Systems, Minneapolis) were incubated at four different concentrations with the relevant colorimetric or fluorescent peptide substrates (R&D Systems, Minneapolis) for 3 h. The tested compounds were added at four to six different concentrations and the inhibitory potencies expressed in a colorimetric change, was measured by an ELISA or fluorimeter.

The next experiment has as its target T2, human MMP-3 (Homo sapiens, UniProt P08254).
T2 construct: purchased R&D Systems, Minneapolis
The experiment is described as follows: Determination of MMP inhibitory potency, MMP-3. It counts as biochemical. How it is done:
as §1

For experiment [1], the target named is T3, MMP-2 (Homo sapiens, UniProt P08253).
T3 sequence (P08253 110-660): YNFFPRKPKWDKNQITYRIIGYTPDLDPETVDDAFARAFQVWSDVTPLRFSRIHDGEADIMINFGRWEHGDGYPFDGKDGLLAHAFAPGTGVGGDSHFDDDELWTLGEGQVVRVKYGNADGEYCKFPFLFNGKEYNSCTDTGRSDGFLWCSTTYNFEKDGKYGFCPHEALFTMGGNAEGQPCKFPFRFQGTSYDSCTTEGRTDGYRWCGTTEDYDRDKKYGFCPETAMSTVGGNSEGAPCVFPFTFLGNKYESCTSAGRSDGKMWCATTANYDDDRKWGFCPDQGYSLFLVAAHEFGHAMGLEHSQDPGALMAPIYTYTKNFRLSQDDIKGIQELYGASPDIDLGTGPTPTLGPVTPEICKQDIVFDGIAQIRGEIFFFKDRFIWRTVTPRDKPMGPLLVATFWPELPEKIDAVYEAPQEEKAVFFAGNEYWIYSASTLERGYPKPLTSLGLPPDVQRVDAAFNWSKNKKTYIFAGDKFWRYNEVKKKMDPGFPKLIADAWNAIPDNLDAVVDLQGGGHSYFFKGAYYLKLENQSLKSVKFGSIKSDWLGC
The experiment is described as follows: Determination of MMP inhibitory potency, MMP-2. It counts as biochemical. Further details: purchased R&D Systems, Minneapolis. Conditions: read-out: IC50 (μM) on MMP-2. How it is done:
as §1

The target of the next experiment is T4, human MMP-12 (Homo sapiens, UniProt P39900).
T4 construct: purchased R&D Systems, Minneapolis
In words: Determination of MMP inhibitory potency, MMP-12. It counts as biochemical. The following applies: read-out: IC50 (μM) on MMP-12. How it is done:
as §1

A further experiment has as its target T5, human MMP-13 (Homo sapiens, UniProt P45452).
T5 construct: purchased R&D Systems, Minneapolis
In words: Determination of MMP inhibitory potency, MMP-13. It counts as biochemical. Conditions: read-out: IC50 (μM) on MMP-13. How it is done:
as §1

The target in the next experiment is T6, TACE (Homo sapiens, UniProt P78536).
T6 construct: purchased R&D Systems, Minneapolis
The experiment is described as follows: Determination of inhibitory potency, TACE. It counts as biochemical. How it is done:
as §1

A further experiment has as its target T7, human MMP-9 (Homo sapiens, UniProt P14780).
T7 construct: purchased R&D Systems, Minneapolis
In words: Determination of MMP inhibitory potency, MMP-9. It counts as biochemical. The procedure: as §1

For experiment [2], the target named is T3, MMP-2. In words: Time dependent inhibition of MMP-2 (period of inhibition). It counts as biochemical.
A further experiment deals with MMP and/or ADAM enzyme. The experiment is described as follows: Duration of inhibitory effect on the enzymes inhibited. It counts as biochemical, human. The procedure: Previously, it has been established that cis-2-aminocyclohexycarbamoyl phosphonic acid (cis-ACCP), listed for the purpose of comparison in Tables 2 and 3 as “control”, was an effective nontoxic, in vivo active antimetastatic compound. […] In the study leading to the subject invention, it was determined that the inhibitory effect could be, and in fact was prolonged by substituting carbamoylphosphonic functionality with aromatic ring functionality as in the compounds of the invention. […]
as §1

Some results are limits rather than exact numbers.

T2 sequence (P08254 100-477): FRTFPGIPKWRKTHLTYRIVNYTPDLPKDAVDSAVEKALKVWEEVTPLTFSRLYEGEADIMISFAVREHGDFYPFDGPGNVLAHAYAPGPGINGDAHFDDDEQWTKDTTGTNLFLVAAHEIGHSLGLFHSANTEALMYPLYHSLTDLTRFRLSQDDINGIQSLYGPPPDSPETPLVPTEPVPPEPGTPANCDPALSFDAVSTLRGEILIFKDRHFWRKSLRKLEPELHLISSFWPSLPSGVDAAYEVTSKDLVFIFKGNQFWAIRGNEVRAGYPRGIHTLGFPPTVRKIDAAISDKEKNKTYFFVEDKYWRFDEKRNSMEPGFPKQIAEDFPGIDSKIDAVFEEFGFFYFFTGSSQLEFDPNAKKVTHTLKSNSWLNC
T7 sequence (P14780 94-707): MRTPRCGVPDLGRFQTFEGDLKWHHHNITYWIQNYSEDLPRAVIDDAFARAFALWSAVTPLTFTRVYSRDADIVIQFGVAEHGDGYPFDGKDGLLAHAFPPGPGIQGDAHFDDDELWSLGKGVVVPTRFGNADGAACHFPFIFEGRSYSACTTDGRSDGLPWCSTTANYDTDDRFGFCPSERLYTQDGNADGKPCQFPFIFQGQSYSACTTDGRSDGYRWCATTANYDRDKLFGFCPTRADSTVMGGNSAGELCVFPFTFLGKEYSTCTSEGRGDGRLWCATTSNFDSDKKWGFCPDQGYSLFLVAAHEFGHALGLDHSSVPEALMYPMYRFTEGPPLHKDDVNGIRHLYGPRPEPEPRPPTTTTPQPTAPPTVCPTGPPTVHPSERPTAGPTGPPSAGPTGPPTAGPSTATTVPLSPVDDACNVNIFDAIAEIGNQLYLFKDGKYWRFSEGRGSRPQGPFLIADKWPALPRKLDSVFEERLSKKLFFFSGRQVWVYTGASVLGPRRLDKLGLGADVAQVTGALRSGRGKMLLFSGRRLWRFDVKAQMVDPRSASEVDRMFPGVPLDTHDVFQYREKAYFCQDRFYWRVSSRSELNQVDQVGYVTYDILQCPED
T6 sequence (P78536 215-824): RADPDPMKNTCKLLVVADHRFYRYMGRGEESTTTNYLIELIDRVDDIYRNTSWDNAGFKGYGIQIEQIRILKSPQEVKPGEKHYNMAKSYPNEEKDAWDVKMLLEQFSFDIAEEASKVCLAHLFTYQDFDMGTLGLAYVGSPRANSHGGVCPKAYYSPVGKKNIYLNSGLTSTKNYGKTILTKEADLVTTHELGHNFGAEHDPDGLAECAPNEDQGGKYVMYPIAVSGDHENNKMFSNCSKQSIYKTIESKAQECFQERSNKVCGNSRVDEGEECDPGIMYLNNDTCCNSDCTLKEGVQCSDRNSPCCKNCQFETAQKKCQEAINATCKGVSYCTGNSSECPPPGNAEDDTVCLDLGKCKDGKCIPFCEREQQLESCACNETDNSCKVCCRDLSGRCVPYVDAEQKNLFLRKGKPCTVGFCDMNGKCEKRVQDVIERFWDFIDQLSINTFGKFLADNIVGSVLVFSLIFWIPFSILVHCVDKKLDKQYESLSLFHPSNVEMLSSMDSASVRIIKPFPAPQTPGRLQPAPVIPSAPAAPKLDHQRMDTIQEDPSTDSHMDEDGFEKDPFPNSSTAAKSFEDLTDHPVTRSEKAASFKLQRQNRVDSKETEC
T1 sequence (P22894 101-467): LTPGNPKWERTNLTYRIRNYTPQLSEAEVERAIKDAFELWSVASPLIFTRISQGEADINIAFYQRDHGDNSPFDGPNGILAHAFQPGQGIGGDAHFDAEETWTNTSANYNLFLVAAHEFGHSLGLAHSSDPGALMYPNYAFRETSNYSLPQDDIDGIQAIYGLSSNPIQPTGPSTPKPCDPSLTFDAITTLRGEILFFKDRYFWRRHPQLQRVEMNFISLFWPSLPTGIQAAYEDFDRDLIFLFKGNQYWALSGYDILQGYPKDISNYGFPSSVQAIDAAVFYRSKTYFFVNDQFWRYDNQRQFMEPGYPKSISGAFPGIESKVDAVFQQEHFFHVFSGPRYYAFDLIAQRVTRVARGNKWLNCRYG
T4 sequence (P39900 106-470): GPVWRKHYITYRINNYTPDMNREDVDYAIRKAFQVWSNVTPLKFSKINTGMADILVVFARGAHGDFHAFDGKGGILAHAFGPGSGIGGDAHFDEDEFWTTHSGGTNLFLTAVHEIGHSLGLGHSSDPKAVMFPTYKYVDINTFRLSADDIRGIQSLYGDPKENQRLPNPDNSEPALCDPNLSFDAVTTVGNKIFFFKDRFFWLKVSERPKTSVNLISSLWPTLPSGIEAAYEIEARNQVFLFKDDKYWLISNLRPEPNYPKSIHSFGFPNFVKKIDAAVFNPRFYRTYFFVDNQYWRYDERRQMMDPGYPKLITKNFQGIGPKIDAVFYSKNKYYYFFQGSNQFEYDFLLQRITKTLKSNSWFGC
Description for B16F10 tumor cells: Experimental metastasis was studied in the murine melanoma model. In this model, B16F10 tumor cells (50 k) were injected into the tail vein of C57B1 6 week old female mice. After 21 days, the metastases formed on the lungs of the mice were counted after appropriate fixation. […] One group received the inhibitor intraperitoneally and the other group orally, dissolved in PBS. Mice were monitored for toxic symptoms at alternate days.

For the molecule `O=C(NCCNS(=O)(=O)c1ccc(Oc2ccccc2)cc1)P(=O)(O)O` [Compound 1, 1-[4-phenoxybenzenesulfonamido]-2-[phosphonoformamido]ethane], the “inhibition in metastasis formation (number of metastatic foci in the lung)” value in the experiment with B16F10 tumor cells is recorded as over 80%. For the same molecule, the inhibition – broadly, the percentage by which the read-out fell short of the control – at 50 µM with tumor invasion worked out at 70%. On human MMP-8, the “activity against MMP-8” value is “reduced or no activity”. Besides, the IC50 (as a rule, the concentration needed to halve the response being measured) on human MMP-8 (read-out: IC50 (μM) on MMP-8) is over 100 µM; at human MMP-3 (read-out: IC50 (μM) on MMP-3), over 100 µM; on MMP-2 [1], 15 µM; on human MMP-12, 60 µM; on human MMP-13, 55 µM; on TACE (read-out: IC50 (μM) on TACE) it was 6 µM. For the same molecule, the IC50 on human MMP-9 (read-out: IC50 (μM) on MMP-9) is over 100 µM. Further, the “activity against MMP-3” value on human MMP-3 is “reduced or no activity”. Also, the “activity against TACE” value at TACE was “moderate activity”. Moreover, the “activity against MMP-9” value on human MMP-9 is “reduced or no activity”. At MMP-2 [2], the “period as active inhibitor (time dependent inhibition, FIG. 1)” value is given as “at least 3 hours”. Besides, the “Duration of inhibitory effect” value in the experiment on MMP and/or ADAM enzyme was over 180 min.
